# Measured values: the supplement of paper PMC10307832
# What was measured:
# Assay in all cases: relative viability (nuclei count vs DMSO), 5 days (fraction); higher = more cells survive
# Midostaurin + Tozasertib = compound: CO[C@@H]1[C@H](N(C)C(=O)c2ccccc2)C[C@H]2O[C@]1(C)n1c3ccccc3c3c4c(c5c6ccccc6n2c5c31)C(=O)NC4 [Midostaurin] + Cc1cc(Nc2cc(N3CCN(C)CC3)nc(Sc3ccc(NC(=O)C4CC4)cc3)n2)n[nH]1 [Tozasertib] (partner 0.1 µM)
# Summary of the method: (§1)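 Lung cancer cell lines in 1536-well plates got either a single drug or a fixed anchor-drug dose together with five library-drug doses (not always all listed) in √10 steps, by pin tool, on the day after seeding. Nuclei were counted after 5 days, and relative viability is the treated-to-vehicle ratio of nuclei counts. Values are medians of duplicate plates.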
# [1] = compound: COc1cc(-c2nn([C@H]3CC[C@H](N4CCN(C(C)=O)CC4)CC3)c3ncnc(N)c23)ccc1NC(=O)c1cc2ccccc2n1C + CCNC(=O)c1noc(-c2cc(C(C)C)c(O)cc2O)c1-c1ccc(CN2CCOCC2)cc1 [Luminespib] (partner 0.01 µM)
# Summary of the method: as §1
# Midostaurin + OSI-027 = compound: CO[C@@H]1[C@H](N(C)C(=O)c2ccccc2)C[C@H]2O[C@]1(C)n1c3ccccc3c3c4c(c5c6ccccc6n2c5c31)C(=O)NC4 [Midostaurin] + COc1cccc2cc(-c3nc([C@H]4CC[C@H](C(=O)O)CC4)n4ncnc(N)c34)[nH]c12 [OSI-027] (partner 0.5 µM)
# Summary of the method: as §1
# Midostaurin + Phenformin = compound: CO[C@@H]1[C@H](N(C)C(=O)c2ccccc2)C[C@H]2O[C@]1(C)n1c3ccccc3c3c4c(c5c6ccccc6n2c5c31)C(=O)NC4 [Midostaurin] + N=C(N)NC(=N)NCCc1ccccc1 [Phenformin] (partner 250 µM)
# Summary of the method: as §1
# Midostaurin + Linsitinib = compound: CO[C@@H]1[C@H](N(C)C(=O)c2ccccc2)C[C@H]2O[C@]1(C)n1c3ccccc3c3c4c(c5c6ccccc6n2c5c31)C(=O)NC4 [Midostaurin] + C[C@]1(O)C[C@@H](c2nc(-c3ccc4ccc(-c5ccccc5)nc4c3)c3c(N)nccn32)C1 [Linsitinib] (partner 1 µM)
# Summary of the method: as §1
Cell Line,relative viability (Midostaurin + Tozasertib; first compound 0.01 µM),relative viability (Midostaurin + Tozasertib; first compound 0.03162 µM),relative viability (Midostaurin + Tozasertib; first compound 0.1 µM),relative viability (Midostaurin + Tozasertib; first compound 0.3162 µM),relative viability ([1]; first compound 0.0128 µM),relative viability ([1]; first compound 0.04048 µM),relative viability ([1]; first compound 0.128 µM),relative viability ([1]; first compound 1.28 µM),relative viability (Midostaurin + OSI-027; first compound 0.01 µM),relative viability (Midostaurin + OSI-027; first compound 0.03162 µM),relative viability (Midostaurin + OSI-027; first compound 0.1 µM),relative viability (Midostaurin + OSI-027; first compound 0.3162 µM),relative viability (Midostaurin + Phenformin; first compound 0.01 µM),relative viability (Midostaurin + Phenformin; first compound 0.03162 µM),relative viability (Midostaurin + Phenformin; first compound 0.1 µM),relative viability (Midostaurin + Phenformin; first compound 0.3162 µM),relative viability (Midostaurin + Linsitinib; first compound 0.01 µM),relative viability (Midostaurin + Linsitinib; first compound 0.03162 µM),relative viability (Midostaurin + Linsitinib; first compound 0.1 µM),relative viability (Midostaurin + Linsitinib; first compound 0.3162 µM)
NCI-H1915,0.46,0.435,0.404,0.412,0.877,0.691,0.625,0.678,0.623,0.555,0.568,0.597,0.35,0.348,0.352,0.352,1.05,1.06,1.09,1.11
NCI-H596,0.991,0.977,0.899,0.947,1.06,1.2,0.893,0.583,0.727,0.774,0.598,0.904,0.898,0.963,0.816,0.986,1.09,1.17,1.08,1.15
NCI-H322M,0.474,0.477,0.481,0.544,0.887,0.935,0.756,0.483,0.633,0.489,0.595,0.569,0.831,0.673,0.811,0.875,0.993,0.945,1.08,1.08
NCI-H2228,0.254,0.284,0.265,0.216,0.184,0.145,0.141,0.115,0.652,0.603,0.687,0.703,0.405,0.363,0.366,0.5,0.731,0.879,0.828,0.679
NCI-H647,0.411,0.35,0.293,0.18,0.172,0.168,0.158,0.159,0.637,0.652,0.779,0.753,0.533,0.603,0.473,0.433,1.09,1.37,1.1,0.738
SK-MES-1,0.803,0.819,0.741,0.578,0.686,0.928,0.791,0.375,0.55,0.531,0.548,0.44,0.647,0.582,0.631,0.562,1.05,0.954,1.06,1.07
NCI-H2085,0.807,0.764,0.663,0.582,0.416,0.524,0.445,0.43,0.752,0.655,0.837,0.461,0.718,0.627,0.749,0.583,0.842,0.865,0.801,0.768
SW 1573,0.177,0.187,0.173,0.157,0.225,0.229,0.231,0.42,0.619,0.82,0.581,0.748,0.379,0.462,0.41,0.308,0.747,0.848,0.979,1.02
NCI-H727,0.704,0.704,0.575,0.468,0.417,,0.343,0.236,0.673,0.492,0.538,0.479,0.545,0.437,0.665,0.538,0.329,0.337,0.349,0.227
NCI-H441,0.592,0.631,0.564,0.401,0.337,0.347,0.31,0.244,0.629,0.525,0.405,0.529,0.914,0.773,0.747,0.768,0.569,0.56,0.432,0.435
LOU-NH91,0.722,0.608,0.653,0.642,0.413,0.28,0.352,0.321,0.74,0.67,0.747,0.802,0.755,0.701,0.764,0.798,1.05,0.885,0.958,0.953
NCI-H3122,0.365,0.283,0.386,0.336,0.0938,,0.0759,0.069,0.932,0.492,1.06,1.41,0.376,0.369,0.372,0.363,0.913,0.987,1.13,1.05
NCI-H460,0.448,0.492,0.44,0.415,0.0282,0.0389,0.0319,0.0347,0.513,0.62,0.722,0.665,0.492,0.507,0.561,0.534,0.739,0.732,0.75,0.694
NCI-H650,0.657,0.751,0.749,0.615,0.731,0.861,0.941,0.754,0.439,0.455,0.507,0.456,0.403,0.413,0.437,0.322,0.715,0.862,0.76,0.508
NCI-H661,0.362,0.323,0.364,0.376,0.901,1.08,0.948,0.946,0.74,0.638,0.719,0.607,0.279,0.286,0.261,0.311,0.56,0.638,0.532,0.439
